Reference: patent US4459290A, “C-23-Modified derivatives of OMT, pharmaceutical compositions and method of use” (priority 1982, dated 1984)
In brackets after ≈: the same amount, converted by molar mass. Read-outs that look alike come from different tables or passages of the source.

Key:
Escherichia coli EC14 = assay: MIC, standard agar-dilution assay (Table V); format: cell-based
Description: (§1) Especially noteworthy is the improved activity against gram-negative bacteria for several derivatives when compared to the activity of OMT. […] The MIC's in Tables V and VI were determined by standard agar-dilution assays. The MIC's in Table VII were obtained using a conventional broth-dilution microtiter test.

Escherichia coli N10 = assay: MIC, standard agar-dilution assay (Table V); format: cell-based
Description: as §1

[1] = system: Klebsiella pneumoniae KAE; assay: MIC, standard agar-dilution assay (Table V); format: cell-based
Description: as §1

[2] = system: Klebsiella pneumoniae X26; assay: MIC, standard agar-dilution assay (Table V); format: cell-based
Description: as §1

Shigella sonnei N9 = assay: MIC, standard agar-dilution assay (Table V); format: cell-based
Description: as §1

[3] = system: Staphylococcus aureus S13E; assay: MIC, standard agar-dilution assay (Table V); format: cell-based
Description: as §1

[4] = system: Staphylococcus aureus V41; assay: MIC, standard agar-dilution assay (Table V); format: cell-based
Description: as §1

[5] = system: Staphylococcus aureus X1.1; assay: MIC, standard agar-dilution assay (Table V); format: cell-based
Description: as §1

[6] = system: Staphylococcus aureus X400; assay: MIC, standard agar-dilution assay (Table V); format: cell-based
Description: as §1

[7] = system: Staphylococcus epidermidis EPI1; assay: MIC, standard agar-dilution assay (Table V); format: cell-based
Description: as §1

[8] = system: Staphylococcus epidermidis EPI2; assay: MIC, standard agar-dilution assay (Table V); format: cell-based
Description: as §1

Streptococcus Group 9960 = assay: MIC, standard agar-dilution assay (Table V); format: cell-based
Description: as §1

[9] = system: Streptococcus Group D X66; assay: MIC, standard agar-dilution assay (Table V); format: cell-based
Description: as §1

Escherichia coli TEM = assay: MIC, standard agar-dilution assay (Table V); format: cell-based
Description: (§2) The MIC's in Tables V and VI were determined by standard agar-dilution assays. The MIC's in Table VII were obtained using a conventional broth-dilution microtiter test.

[10] = system: Haemophilus influenzae R252; assay: MIC, standard agar-dilution assay (Table V); format: cell-based; conditions: H. influenzae R252, ampicillin-resistant strain, agar dilution
Description: as §2

[11] = system: Streptococcus pyogenes C203; assay: MIC, standard agar-dilution assay (Table V); format: cell-based; conditions: S. pyogenes C203, agar dilution
Description: as §2

[12] = system: Streptococcus pneumoniae Park I; assay: microbe, parasite or virus in culture; format: cell-based; conditions: S. pneumoniae Park I, agar dilution
Description: as §1

Mycoplasma gallisepticum = assay: MIC, broth-dilution microtiter test (Table VII); format: cell-based
Description: as §1

Mycoplasma hyorhinis = assay: MIC, broth-dilution microtiter test (Table VII); format: cell-based
Description: as §1

Mycoplasma synoviae = assay: MIC, broth-dilution microtiter test (Table VII); format: cell-based
Description: as §1

[13] = system: Pasteurella hemolytica 22C; assay: MIC, broth-dilution microtiter test (Table VII); format: cell-based; conditions: P. hemolytica 22C
Description: as §1

[14] = system: Pasteurella hemolytica 23C; assay: MIC, broth-dilution microtiter test (Table VII); format: cell-based; conditions: P. hemolytica 23C
Description: as §1

[15] = system: Pasteurella hemolytica 41D; assay: MIC, broth-dilution microtiter test (Table VII); format: cell-based; conditions: P. hemolytica 41D
Description: as §1

[16] = system: Pasteurella multocida 17E; assay: MIC, broth-dilution microtiter test (Table VII); format: cell-based
Description: as §1

[17] = system: Pasteurella multocida 22A; assay: MIC, broth-dilution microtiter test (Table VII); format: cell-based; conditions: P. multocida 22A, broth-dilution microtiter
Description: as §1

[18] = system: Pasteurella multocida 40G; assay: MIC, broth-dilution microtiter test (Table VII); format: cell-based
Description: as §1

[19] = system: Pasteurella multocida 60A; assay: MIC, broth-dilution microtiter test (Table VII); format: cell-based
Description: as §1

[20] = system: Pasteurella multocida 68C; assay: MIC, broth-dilution microtiter test (Table VII); format: cell-based
Description: as §1

Staphylococcus aureus = assay: MIC, broth-dilution microtiter test (Table VII); format: cell-based
Description: as §1

Streptococcus sp. 80 = assay: MIC, broth-dilution microtiter test (Table VII); format: cell-based; conditions: Streptococcus sp. 80, broth-dilution microtiter
Description: as §1

[21] = system: Streptococcus pyogenes C203; assay: ED50 in mice experimentally infected with S. pyogenes C203 (Table VIII); format: in vivo
Description: The C-23 modified derivatives of OMT of this invention have shown in vivo antimicrobial activity against experimental infections. When two doses of test compound were administered to mice experimentally infected with a gram-positive bacterium, S. pyogenes C203, the activity observed was measured as an ED50 value [effective dose in mg/kg to protect 50% of the test animals: see Warren Wick, et al., J. Bacteriol. 81, 233-235 (1961)].

Pasteurella multocida = assay: Protection of one-day-old chicks against Pasteurella multocida infection (Table IX); format: in vivo; conditions: subcutaneous 30 mg/kg × 2, 1 and 4 hours post-challenge
Description: The C-23 modified derivatives of OMT have also shown in vivo antibacterial activity against infections induced by gram-negative bacteria. Table IX summarizes the results of tests in which illustrative compounds were evaluated against Pasteurella infections in one-day-old chicks. The compounds were administered by subcutaneous injection at a dosage of 30 mg/kg, 1 and 4 hours post-challenge of the chicks with Pasteurella multocida (0.1 ml of a twenty-hour tryptose broth culture of an avian P. multocida given subcutaneously). In the tests, all ten non-medicated infected chicks died within 24 hours of Pasteurella challenge.

[22] = system: Haemophilus influenzae Holt; assay: MIC, standard agar-dilution assay (Table V); format: cell-based; conditions: H. influenzae Holt, ampicillin-sensitive strain; agar dilution
Description: as §2

Structure (SMILES): CCC1OC(=O)CC(O)C(C)C(OC2OC(C)C(O)C(N(C)C)C2O)C(CC=O)CC(C)C(=O)C=CC(C)=CC1CN (stereo not shown) [Compound 9, 23-Deoxy-23-amino-OMT]
- MIC (Escherichia coli EC14; Escherichia coli, EC14): > 128 µg/mL
- MIC (Escherichia coli N10; Escherichia coli, N10): > 128 µg/mL
- MIC ([1]; Klebsiella pneumoniae): > 128 µg/mL
- MIC ([2]; Klebsiella pneumoniae, X26): 16 µg/mL (≈ 26.8 µM)
- MIC (Shigella sonnei N9): > 128 µg/mL
- MIC ([3]; Staphylococcus aureus, S13E): 8 µg/mL (≈ 13.4 µM)
- MIC ([4]; Staphylococcus aureus, V41): 8 µg/mL (≈ 13.4 µM)
- MIC ([5]; Staphylococcus aureus, X1.1): 8 µg/mL (≈ 13.4 µM)
- MIC ([6]; Staphylococcus aureus, X400): 8 µg/mL (≈ 13.4 µM)
- MIC ([7]; Staphylococcus epidermidis, EPI1): 8 µg/mL (≈ 13.4 µM)
- MIC ([8]; Staphylococcus epidermidis, EPI2): 8 µg/mL (≈ 13.4 µM)
- MIC (Streptococcus Group 9960; GROUP9960): 8 µg/mL (≈ 13.4 µM)
- MIC [9]: 8 µg/mL (≈ 13.4 µM)
- MIC (Escherichia coli TEM; Escherichia coli): > 128 µg/mL
- MIC ([10]; Haemophilus influenzae, read-out: MIC): 1 µg/mL (≈ 1.68 µM)
- MIC ([11]; Streptococcus pyogenes, read-out: MIC): 2 µg/mL (≈ 3.35 µM)
- MIC ([12]; Streptococcus pneumoniae, read-out: MIC): 1 µg/mL (≈ 1.68 µM)
- MIC (Mycoplasma gallisepticum; Mycoplasmoides gallisepticum): 0.78 µg/mL (≈ 1.31 µM)
- MIC (Mycoplasma hyorhinis): 12.5 µg/mL (≈ 20.9 µM)
- MIC (Mycoplasma synoviae; Mycoplasmopsis synoviae): 0.78 µg/mL (≈ 1.31 µM)
- MIC ([13]; Pasteurella, read-out: MIC): 12.5 µg/mL (≈ 20.9 µM)
- MIC ([14]; Pasteurella, read-out: MIC): 12.5 µg/mL (≈ 20.9 µM)
- MIC ([15]; Pasteurella, read-out: MIC): 25 µg/mL (≈ 41.9 µM)
- MIC ([16]; Pasteurella multocida, 17E): 6.25 µg/mL (≈ 10.5 µM)
- MIC ([17]; Pasteurella multocida, read-out: MIC): 25 µg/mL (≈ 41.9 µM)
- MIC ([18]; Pasteurella multocida, 40G): 12.5 µg/mL (≈ 20.9 µM)
- MIC ([19]; Pasteurella multocida, 60A): 6.25 µg/mL (≈ 10.5 µM)
- MIC ([20]; Pasteurella multocida, 68C): 12.5 µg/mL (≈ 20.9 µM)
- MIC (Staphylococcus aureus; Staphylococcus aureus): 12.5 µg/mL (≈ 20.9 µM)
- MIC (Streptococcus sp. 80; read-out: MIC): 1.56 µg/mL (≈ 2.61 µM)
- ED50 ([21]; C203, po, read-out: ED50, Oral): > 100 mg/kg
- ED50 ([21]; C203, sc, mice, subcutaneous, doses given 1 and 4 hours postinfection, read-out: ED50, Subcutaneous): 2.6 mg/kg
- Number of deaths/number treated (Pasteurella multocida): 0/10

Structure (SMILES): CCC1OC(=O)CC(O)C(C)C(OC2OC(C)C(O)C(N(C)C)C2O)C(CC=O)CC(C)C(=O)C=CC(C)=CC1CNC(=O)CNC(=O)C(C)NC(=O)OC(C)(C)C (stereo not shown) [Compound 13]
- MIC (Escherichia coli EC14; E. coli EC14, agar dilution): -- (MIC ≥ 128)
- MIC (Escherichia coli N10; E. coli N10, agar dilution): -- (MIC ≥ 128)
- MIC ([1]; K. pneumoniae KAE, agar dilution): -- (MIC ≥ 128)
- MIC ([2]; K. pneumoniae X26, agar dilution): -- (MIC ≥ 128)
- MIC ([3]; S. aureus S13E, agar dilution): 32 µg/mL (≈ 38.8 µM)
- MIC ([4]; S. aureus V41, penicillin-resistant strain, agar dilution): 32 µg/mL (≈ 38.8 µM)
- MIC ([5]; S. aureus X1.1, agar dilution): 16 µg/mL (≈ 19.4 µM)
- MIC ([6]; S. aureus X400, methicillin-resistant strain, agar dilution): 32 µg/mL (≈ 38.8 µM)
- MIC ([7]; S. epidermidis EPI1, agar dilution): 16 µg/mL (≈ 19.4 µM)
- MIC ([8]; S. epidermidis EPI2, agar dilution): 32 µg/mL (≈ 38.8 µM)
- MIC (Streptococcus Group 9960; Streptococcus Group 9960, agar dilution): 32 µg/mL (≈ 38.8 µM)
- MIC ([9]; Streptococcus Group D X66, agar dilution): 32 µg/mL (≈ 38.8 µM)
- MIC (Escherichia coli TEM; E. coli TEM, agar dilution): -- (MIC ≥ 128)
- MIC [22]: 64 µg/mL (≈ 77.6 µM)
- MIC [10]: 64 µg/mL (≈ 77.6 µM)
- MIC [11]: 4 µg/mL (≈ 4.85 µM)
- MIC [12]: 4 µg/mL (≈ 4.85 µM)
- MIC (Mycoplasma gallisepticum; M. gallisepticum, broth-dilution microtiter): 6.25 µg/mL (≈ 7.58 µM)
- MIC (Mycoplasma hyorhinis; M. hyorhinis, broth-dilution microtiter): 50 µg/mL (≈ 60.6 µM)
- MIC (Mycoplasma synoviae; M. synoviae, broth-dilution microtiter): 12.5 µg/mL (≈ 15.2 µM)
- MIC [13]: > 50 µg/mL
- MIC [14]: > 50 µg/mL
- MIC [15]: > 50 µg/mL
- MIC ([16]; P. multocida 17E, bovine isolate, broth-dilution microtiter): 50 µg/mL (≈ 60.6 µM)
- MIC [17]: > 50 µg/mL
- MIC ([18]; P. multocida 40G, broth-dilution microtiter): 50 µg/mL (≈ 60.6 µM)
- MIC ([19]; P. multocida 60A, avian isolate, broth-dilution microtiter): 50 µg/mL (≈ 60.6 µM)
- MIC ([20]; P. multocida 68C, broth-dilution microtiter): 50 µg/mL (≈ 60.6 µM)
- MIC (Staphylococcus aureus; S. aureus, broth-dilution microtiter): 25 µg/mL (≈ 30.3 µM)
- MIC (Streptococcus sp. 80): 6.25 µg/mL (≈ 7.58 µM)
- Number of deaths/number treated (Pasteurella multocida): 7/10
